Values quoted from earlier work in patent US20050233005A1, “Use of glycosaminoglycans and zinc derivatives for insect bites, stings and the like” (priority 2004, published 2005).

Legend:
[1] = tested on: pruritus caused by mosquito bites; conditions: administered prophylactically (Karppinen et al., 2002)
[2] = topical applications and oral administration, animal models and humans (SCCNFP report, 2003)
[3] = tested on: porcine wounds; conditions: topical application (Tarnow et al., 1994; Agren et al., 2001)
[4] = tested on: diabetic foot wounds; conditions: in wound dressings (Vazquez et al., 2003)
[5] = tested on: skin wound; conditions: topical application (Chen and Abatengelo, 1999)

Compound | pruritus caused by mosquito bites [1] | toxicity [2] | further results
CC(C)(C)c1ccc(C(=O)CCCN2CCC(OC(c3ccccc3)c3ccccc3)CC2)cc1 [ebastine] | significantly decrease | – | –
O=C(O)COCCN1CCN(C(c2ccccc2)c2ccc(Cl)cc2)CC1 (stereo not shown) [cetirizine] | significantly decrease | – | –
[O]=[Zn] [zinc oxide] | – | little or no toxicity | release of growth factors [3]: enhanced
Hyaluronic acid [HA] | – | – | healing of diabetic foot wounds [4]: beneficial; skin wound healing [5]: accelerate
O=S(=O)([O-])[O-].[Zn+2] [zinc sulphate] | – | little or no toxicity | –
